Source: patent publication US9688712B2, “Manufacturing method for polyphenol composition” (KAO CORPORATION, priority 2010, dated 2017)
Read-outs that look alike come from different tables or passages of the source. One block for each compound: values may come before it.

Experiments:
[1] = Measurement of log P value of the hardly water-soluble polyphenols (flask shaking method, JIS Z7260-107)
Description: The log P value is a common logarithm of the partition coefficient between 1-octanol, and water and an index indicative of a hydrophobicity of an organic compound. Larger positive log P value indicates larger hydrophobicity. […] The details are described in Examples.
[Measurement of Log P Value of the Hardly Water-Soluble Polyphenols]
First, 1-octanol and distilled water were shaken for 24 hours at 25° C. to equilibrate them. Then, 10 mg of polyphenol was weighed into a glass vial with a cap, into which each of 4 mL of the equilibrated 1-octanol and water was added. The vial was shaken for 4 days at 25° C. […] Log P value is a common logarithm of the partition coefficient between the two phases.

[2] = cited from earlier work

Structure (SMILES): COc1cc(/C=C/C(=O)CC(=O)/C=C/c2ccc(O)c(OC)c2)ccc1O [curcumin]
- logP at 4 days [1]: 3.29

Structure (SMILES): COc1ccc([C@@H]2CC(=O)c3c(O)cc(O[C@@H]4O[C@H](CO[C@@H]5O[C@@H](C)[C@H](O)[C@@H](O)[C@H]5O)[C@@H](O)[C@H](O)[C@H]4O)cc3O2)cc1O [Hesperidin, hesperidin]
- solubility in water at 25° C. [2]: 0.02 mg/g

- logP at 4 days ([1]; 1-octanol/water): 3.08
Structure (SMILES): Oc1ccc(C=Cc2cc(O)cc(O)c2)cc1 [resveratrol]
